Results on five compounds are retold here after patent EP2265631B1, “NOVEL ANTIMICROBIAL PEPTIDES AND THEIR APPLICATION” (Ustav Organicke Chemie a Biochemie Akademie Ved Ceske …, priority 2008, dated 2009).

For data set [1], the system named is rat red blood cells. The data set can be described thus: Determination of hemolytic activity. Type of data set: cell-based. Conditions: for Hemolytic activity: rat red blood cells (5%), 1 h at 37°C, peptides 1-200 µM. The protocol: The peptides in the concentration (1-200 µM) were incubated with rat red blood cells (5%) for 1 h at 37°C in a physiological solution at a final volume of 0.2 ml. The samples were then centrifuged for 5 min at 250 g, and the absorbance of the supernatant was determined at 540 nm. Supernatants of red blood cells suspended in physiological solution and in 0.2% TRITON X100 in physiological solution served as controls for zero hemolysis (blank) and 100% hemolysis, respectively. Table 3. Antimicrobial and hemolytic activity of melectin (I) and its synthetic analogs of formulas II/1 to II/18

The subject of data set [2] is CCRF-CEM T lymphoblastoid. The data set can be described thus: Cytostatic effect on cancer cells (e.g. MTT test). Type of data set: cell-based, human. Conditions: 24-72 h incubation, 50% decrease in cell viability. As for the experimental part: (§1) Tumor cells in suspension or adherent cells were incubated under standard conditions in appropriate culture media for 24-72 h with the peptides in 2-40 micromolar concentration. After this time, the number of living cells was determined using routine tests, e.g. MTT test. The IC50 was determined as concentration of peptides, which caused 50% decrease in cell viability in comparison to controls (no peptide present). In preliminary tests mouse lymphocytic leukemia L1210 (CCL 219), CCRF-CEM T lymphoblastoid (human acute lymphoblastic leukemia, CCL 119), human promyelocytic leukemia HL-60 (CCL 240), human cervix carcinoma HeLa S3, rat pheochromocytoma PC12, human colon adenocarcinoma SW480 (CCL-228), and normal rat epithelial cells (IEC-6, CRL-1592) from ATCC (Manassas, VA, USA), were used. […] Table 4. Cytostatic effect of selected peptides on cancer cells

The test system of data set [3] is rat pheochromocytoma PC12. The data set can be described thus: Cytostatic effect on cancer cells (e.g. MTT test). Type of data set: cell-based. Conditions: 24-72 h incubation, 50% decrease in cell viability. As for the experimental part:
as §1
Background: Formazan colour is commonly taken as a measure of viable cells.

The subject of data set [4] is human cervix carcinoma HeLa S3. Nature of the data set: Cytostatic effect on cancer cells (e.g. MTT test). Type of data set: cell-based. Conditions: 24-72 h incubation, 50% decrease in cell viability; read-out: IC50 [µM] HeLaS3. The protocol:
as §1

Data set [5] deals with human colon adenocarcinoma SW480. Nature of the data set: Cytostatic effect on cancer cells (e.g. MTT test). Type of data set: cell-based. Conditions: 24-72 h incubation, 50% decrease in cell viability. The protocol: as §1
In data set [6] the test system is mouse lymphocytic leukemia L1210. Nature of the data set: Cytostatic effect on cancer cells (e.g. MTT test). The conditions noted are these: 24-72 h incubation, 50% decrease in cell viability. Type of data set: cell-based. As for the experimental part: as §1
For data set [7], the system named is human promyelocytic leukemia HL-60. The data set can be described thus: Cytostatic effect on cancer cells (e.g. MTT test). Conditions: 24-72 h incubation, 50% decrease in cell viability. Type of data set: cell-based. As for the experimental part: as §1
Data set [8] concerns bacteria. The data set can be described thus: Antimicrobial effect, general statement. Type of data set: cell-based. The protocol:
(§2) Antimicrobial activity was determined as a quantitative minimum inhibitory concentration (MIC) by observing bacterial growth in the presence of different concentrations of tested peptides. Mid-exponential phase bacteria were added to the solutions of the tested antimicrobial peptide at different concentrations (0.5 to 100 µM) in LB broth in multi-well plates. The plates were incubated at 37°C for 20 h while being continuously shaken in a Bioscreen C instrument (Finland). The absorbance was measured at 540 nm every 15 min and each peptide was tested at least 3 times in duplicate. 1.2.10^3 - 7.5.10^3 CFU of bacteria was routinely used in the experiments. Tetracycline in a concentration range of 0.1 - 50 µM was tested as a standard.

In data set [9] the test system is Tumor cells. Nature of the data set: Cytostatic effect on cancer cells, summary over the cell panel. Type of data set: cell-based. The conditions noted are these: range over the tumor cell lines, preliminary tests. As for the experimental part:
as §1

The subject of data set [10] is Escherichia coli. Nature of the data set: Determination of antimicrobial activity (MIC, bacterial growth in LB broth). Type of data set: cell-based. The conditions noted are these: minimum inhibitory concentration (MIC) per method, 37°C, 20 h, read-out: Antimicrobial activity IC50 [µM] E. c. As for the experimental part:
as §2

Data set [11] has as its system Bacilus subtilis. The data set is described as above. The conditions noted are these: minimum inhibitory concentration (MIC) per method, 37°C, 20 h, read-out: Antimicrobial activity IC50 [µM] B.s. Type of data set: cell-based. As for the experimental part:
as §2

Data set [12] concerns Pseudomonnas aeruginosa. The description is as above. Conditions: minimum inhibitory concentration (MIC) per method, 37°C, 20 h, read-out: Antimicrobial activity IC50 [µM] P.a. Type of data set: cell-based. As for the experimental part:
as §2

The subject of data set [13] is Staphylococcus aureus. The description is as above. Type of data set: cell-based. The conditions noted are these: minimum inhibitory concentration (MIC) per method, 37°C, 20 h, read-out: Antimicrobial activity IC50 [µM] S.a. As for the experimental part: as §2

`CC[C@H](C)[C@H](NC(=O)[C@H](CO)NC(=O)[C@H](CC(C)C)NC(=O)[C@H](Cc1ccccc1)NC(=O)CN)C(=O)N[C@@H](CC(C)C)C(=O)N[C@@H](CCCCN)C(=O)N[C@@H](CCCCN)C(=O)N[C@H](C(=O)N[C@@H](CC(C)C)C(=O)N1CCC[C@H]1C(=O)N[C@@H](CCCCN)C(=O)N[C@H](C(=O)N[C@@H](CCSC)C(=O)N[C@@H](C)C(=O)N[C@@H](Cc1cnc[nH]1)C(=O)N[C@@H](CCSC)C(=O)N[C@@H](CCCCN)C(N)=O)C(C)C)C(C)C` [Peptide I, H-Gly-Phe-Leu-Ser-Ile-Leu-Lys-Lys-Val-Leu-Pro-Lys-Val-Met-Ala-His-Met-Lys-NH2]: in [1], the “hemolytic activity (in words)” value is “low hemolytic activity”. The compound also returned a Hemolytic activity in data set [1] greater than 100 µM. Further, the 50% inhibitory concentration (IC50) in data set [2] was greater than 10 µM; in data set [3] it was 10 µM; in data set [4] it was 18.1 µM; in [5] it was 25 µM; in data set [6] it was greater than 10 µM; in data set [7], greater than 10 µM. The 50% inhibitory concentration (IC50) is 4 to 30 µM in data set [9]; 2 µM in data set [10]; 0.8 µM in [11]; 18.5 µM in [12]; 6.8 µM in data set [13]. Besides, in data set [8], the “antimicrobial effect (in words)” value was “strong antimicrobial effect”.

In turn, “H-GFLSILKKVLPKVMHAMK-NH2 [II/6, H-Gly-Phe-Leu-Ser-Ile-Leu-Lys-Lys-Val-Leu-Pro-Lys-Val-Met-His-Ala-Met-Lys-NH2]” came in with a Hemolytic activity in [1] of 150 µM. Besides, the IC50 is 2.1 µM in data set [10], 1.1 µM in [11], 35.1 µM in data set [12] and 9.1 µM in data set [13].

For “H-GFLSILKKVLPKVMKAMK-NH2 [II/7, H-Gly-Phe-Leu-Ser-Ile-Leu-Lys-Lys-Val-Leu-Pro-Lys-Val-Met-Lys-Ala-Met-Lys-NH2]”, the Hemolytic activity in [1] came to 70 µM. For the same compound, the 50% inhibitory concentration (IC50) in data set [2] was found to be 8.8 µM; in [4] it was 9.6 µM; in data set [5], 12.5 µM; in data set [6], 6.9 µM; in data set [7] it was 9.1 µM; in data set [10], 1.5 µM. For the same compound, the values for the IC50 in data set [11], in data set [12] and in data set [13] were 0.8 µM, 31.7 µM and 7.7 µM, respectively.

As for “H-LSILKKVLPKVMAHMK-NH2 [II/10, H-Leu-Ser-Ile-Leu-Lys-Lys- Val-Leu-Pro-Lys-Val-Met-Ala-His-Met-Lys-NH2]”, the Hemolytic activity entry in data set [1] is “»200 µM”. Moreover, the half-maximal inhibitory concentration (IC50) is 76.2 µM in [10], 7.9 µM in data set [11], greater than 100 µM in [12] and greater than 100 µM in [13].

Regarding “H-SILKKVLPKVMAHMK-NH2 [II/11, H-Ser-Ile-Leu-Lys-Lys-Val-Leu-Pro-Lys-Val-Met-Ala-His-Met-Lys-NH2]”, the Hemolytic activity entry in [1] is reported as “»200 µM”. Besides, the concentration for half-maximal inhibition (IC50) was greater than 100 µM in [10], 21.8 µM in [11], greater than 100 µM in [12] and greater than 100 µM in [13].

In general, IC50 refers to the concentration needed to halve the response being measured.
